Reference: patent US20250206732A1, “COMPOUNDS AND METHODS FOR THE TARGETED DEGRADATION OF KRAS” (Arvinas Operations, Inc., priority 2022, published 2025)

Target: T1, AsPC-1 HiBiT-KRASG12D (Homo sapiens, UniProt P01116, G12D)
T1 construct: insert the HiBiT tag onto the N-terminus of one or more of the endogenous KRAS alleles; endogenous in cells; host or cells: AsPC-1 (ATCC CRL-1682), CRISPR-Cas9 knock-in clone, one tagged allele
Test: HiBiT degradation assay (G12D), AsPC-1 HiBiT-KRASG12D cells
Format: cell-based
Conditions: 24 hours treatment; for Dmax: ASPC1, AsPC-1 HiBiT-KRASG12D cells, maximum degradation observed; for DC50: AsPC-1 HiBiT-KRASG12D cells, HiBiT luminescence
In short: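 AsPC-1 cells (homozygous G12D) carrying a CRISPR knock-in N-terminal HiBiT tag on endogenous KRAS were treated with compounds for 24 hours at 37° C, 5% CO2, in triplicate. Alamar blue viability was read first, then cells were washed and lysed with Nano-Glo HiBiT reagent for 45 minutes before luminescence reading.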

T1 sequence (P01116 1-188 isoform P01116-2 G12D): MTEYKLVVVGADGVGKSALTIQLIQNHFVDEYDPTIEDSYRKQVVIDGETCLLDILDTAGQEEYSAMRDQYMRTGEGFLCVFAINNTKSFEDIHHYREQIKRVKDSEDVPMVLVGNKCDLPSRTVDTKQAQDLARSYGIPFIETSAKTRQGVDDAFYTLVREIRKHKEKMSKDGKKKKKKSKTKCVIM

Row | SMILES | Dmax | DC50
1 | C#Cc1c(F)ccc2cc(O)cc(-c3ncc4c(N5CC6CCC(C5)N6)nc(OCCN5CCC(CC6(F)CCN(CC(=O)N[C@H](C(=O)N7C[C@H](O)C[C@H]7C(=O)N[C@@H](C)c7ccc(-c8scnc8C)cc7)C(C)(C)C)CC6)CC5)nc4c3F)c12 [Compound 157, (2S,4R)-1-[(2S)-2-(2-{4-[(1-{2-[(4-{3,8-diazabicyclo[3.2.1]octan-3-yl}-7-(8-ethynyl-7-fluoro-3-hydroxynaphthalen-1-yl)-8-fluoropyrido[4,3-d]pyrimidin-2-yl)oxy]ethyl}piperidin-4-yl)methyl]-4-fluoropiperidin-1-yl}acetamido)-3,3-dimethylbutanoyl]-4-hydroxy-N-[(1S)-1-[4-(4-methyl-1,3-thiazol-5-yl)phenyl]ethyl]pyrrolidine-2-carboxamide] | 80 to 100% | < 600 nM
2 | C#Cc1c(F)ccc2cc(O)cc(-c3ncc4c(N5CC6CCC(C5)N6)nc(OCCN5CCC(OC6CN(c7cc([C@@H](C(=O)N8C[C@H](O)C[C@H]8C(=O)N[C@@H](C)c8ccc(-c9scnc9C)cc8)C(C)C)on7)C6)CC5)nc4c3F)c12 [Compound 158] | 80 to 100% | < 600 nM
3 | C#Cc1c(F)ccc2cc(O)cc(-c3ncc4c(N5CC6CCC(C5)N6)nc(OCCN5CCC6(CC5)CC(Oc5cc([C@@H](C(=O)N7C[C@H](O)C[C@H]7C(=O)N[C@@H](C)c7ccc(-c8scnc8C)cc7)C(C)C)on5)C6)nc4c3F)c12 [Compound 159, (2S,4R)-1-[(2S)-2-{3-[(7-{2-[(4-{3,8-diazabicyclo[3.2.1]octan-3-yl}-7-(8-ethynyl-7-fluoro-3-hydroxynaphthalen-1-yl)-8-fluoropyrido[4,3-d]pyrimidin-2-yl)oxy]ethyl}-7-azaspiro[3.5]nonan-2-yl)oxy]-1,2-oxazol-5-yl}-3-methylbutanoyl]-4-hydroxy-N-[(1S)-1-[4-(4-methyl-1,3-thiazol-5-yl)phenyl]ethyl]pyrrolidine-2-carboxamide] | 60 to 80% | < 600 nM
4 | C#Cc1c(F)ccc2cc(O)cc(-c3ncc4c(N5CC6CCC(C5)N6)nc(OCCN5CCC(CC6CN(c7cc([C@@H](C(=O)N8C[C@H](O)C[C@H]8C(=O)N[C@@H](C)c8ccc(-c9ccnn9C)cc8)C(C)C)on7)C6)CC5)nc4c3F)c12 [Compound 160, (2S,4R)-1-[(2S)-2-(3-{3-[(1-{2-[(4-{3,8-diazabicyclo[3.2.1]octan-3-yl}-7-(8-ethynyl-7-fluoro-3-hydroxynaphthalen-1-yl)-8-fluoropyrido[4,3-d]pyrimidin-2-yl)oxy]ethyl}piperidin-4-yl)methyl]azetidin-1-yl}-1,2-oxazol-5-yl)-3-methylbutanoyl]-4-hydroxy-N-[(1S)-1-[4-(1-methyl-1H-pyrazol-5-yl)phenyl]ethyl]pyrrolidine-2-carboxamide] | 20 to 60% | > 3000 nM
5 | C#Cc1c(F)ccc2cc(O)cc(-c3ncc4c(N5CC6CCC(C5)N6)nc(OCCN5CCC6(CC5)CC(Oc5cc([C@H](C(=O)N7C[C@H](O)C[C@H]7C(=O)N[C@@H](C)c7ccc(-c8scnc8C)cc7)C(C)C)on5)C6)nc4c3F)c12 [Compound 161, (2S,4R)-1-[(2R)-2-{3-[(7-{2-[(4-{3,8-diazabicyclo[3.2.1]octan-3-yl}-7-(8-ethynyl-7-fluoro-3-hydroxynaphthalen-1-yl)-8-fluoropyrido[4,3-d]pyrimidin-2-yl)oxy]ethyl}-7-azaspiro[3.5]nonan-2-yl)oxy]-1,2-oxazol-5-yl}-3-methylbutanoyl]-4-hydroxy-N-[(1S)-1-[4-(4-methyl-1,3-thiazol-5-yl)phenyl]ethyl]pyrrolidine-2-carboxamide] | 80 to 100% | < 600 nM
6 | CCc1cccc2cc(O)cc(-c3ncc4c(N5CC6CCC(C5)N6)nc(OC[C@H]5CN(CC6CN(c7cc([C@H](C(=O)N8C[C@H](O)C[C@H]8C(=O)N[C@@H](C)c8ccc(-c9scnc9C)cc8)C(C)C)on7)C6)CCN5C)nc4c3F)c12 [Compound 162, (2S,4R)-1-[(2R)-2-[3-(3-{[(3R)-3-{[(4-{3,8-diazabicyclo[3.2.1]octan-3-yl}-7-(8-ethyl-3-hydroxynaphthalen-1-yl)-8-fluoropyrido[4,3-d]pyrimidin-2-yl)oxy]methyl}-4-methylpiperazin-1-yl]methyl}azetidin-1-yl)-1,2-oxazol-5-yl]-3-methylbutanoyl]-4-hydroxy-N-[(1S)-1-[4-(4-methyl-1,3-thiazol-5-yl)phenyl]ethyl]pyrrolidine-2-carboxamide] | 20 to 60% | < 600 nM
7 | CCc1cccc2cc(O)cc(-c3ncc4c(N5CC6CCC(C5)N6)nc(OC[C@@H]5CN(CC6CN(c7cc([C@H](C(=O)N8C[C@H](O)C[C@H]8C(=O)N[C@@H](C)c8ccc(-c9scnc9C)cc8)C(C)C)on7)C6)CCN5C)nc4c3F)c12 [Compound 163, (2S,4R)-1-[(2R)-2-[3-(3-{[(3S)-3-{[(4-{3,8-diazabicyclo[3.2.1]octan-3-yl}-7-(8-ethyl-3-hydroxynaphthalen-1-yl)-8-fluoropyrido[4,3-d]pyrimidin-2-yl)oxy]methyl}-4-methylpiperazin-1-yl]methyl}azetidin-1-yl)-1,2-oxazol-5-yl]-3-methylbutanoyl]-4-hydroxy-N-[(1S)-1-[4-(4-methyl-1,3-thiazol-5-yl)phenyl]ethyl]pyrrolidine-2-carboxamide] | 60 to 80% | < 600 nM
8 | CCc1cccc2cc(O)cc(-c3ncc4c(N5CC6CCC(C5)N6)nc(OC[C@@H]5CN(CC6CN(c7cc([C@@H](C(=O)N8C[C@H](O)C[C@H]8C(=O)N[C@@H](C)c8ccc(-c9scnc9C)cc8)C(C)C)on7)C6)CCN5C)nc4c3F)c12 [Compound 164, (2S,4R)-1-[(2S)-2-[3-(3-{[(3S)-3-{[(4-{3,8-diazabicyclo[3.2.1]octan-3-yl}-7-(8-ethyl-3-hydroxynaphthalen-1-yl)-8-fluoropyrido[4,3-d]pyrimidin-2-yl)oxy]methyl}-4-methylpiperazin-1-yl]methyl}azetidin-1-yl)-1,2-oxazol-5-yl]-3-methylbutanoyl]-4-hydroxy-N-[(1S)-1-[4-(4-methyl-1,3-thiazol-5-yl)phenyl]ethyl]pyrrolidine-2-carboxamide] | 20 to 60% | > 3000 nM
9 | CCc1cccc2cc(O)cc(-c3ncc4c(N5CC6CCC(C5)N6)nc(N5CC(N6CCC(CC7CN(c8cc([C@H](C(=O)N9C[C@H](O)C[C@H]9C(=O)N[C@@H](C)c9ccc(-c%10scnc%10C)cc9)C(C)C)on8)C7)CC6)C5)nc4c3F)c12 [Compound 165] | 20 to 60% | < 600 nM
10 | CCc1cccc2cc(O)cc(-c3ncc4c(N5CC6CCC(C5)N6)nc(OC5CCN(CC6CCN(c7cc([C@H](C(=O)N8C[C@H](O)C[C@H]8C(=O)N[C@@H](C)c8ccc(-c9scnc9C)cc8)C(C)C)on7)CC6)CC5)nc4c3F)c12 [Compound 166, (2S,4R)-1-[(2R)-2-{3-[4-({4-[(4-{3,8-diazabicyclo[3.2.1]octan-3-yl}-7-(8-ethyl-3-hydroxynaphthalen-1-yl)-8-fluoropyrido[4,3-d]pyrimidin-2-yl)oxy]piperidin-1-yl}methyl)piperidin-1-yl]-1,2-oxazol-5-yl}-3-methylbutanoyl]-4-hydroxy-N-[(1S)-1-[4-(4-methyl-1,3-thiazol-5-yl)phenyl]ethyl]pyrrolidine-2-carboxamide] | 20 to 60% | < 600 nM
11 | CCc1cccc2cc(O)cc(-c3ncc4c(N5CC6CCC(C5)N6)nc(OC5CCN(CC6CCN(c7cc([C@@H](C(=O)N8C[C@H](O)C[C@H]8C(=O)N[C@@H](C)c8ccc(-c9scnc9C)cc8)C(C)C)on7)CC6)CC5)nc4c3F)c12 [Compound 167, (2S,4R)-1-[(2S)-2-{3-[4-({4-[(4-{3,8-diazabicyclo[3.2.1]octan-3-yl}-7-(8-ethyl-3-hydroxynaphthalen-1-yl)-8-fluoropyrido[4,3-d]pyrimidin-2-yl)oxy]piperidin-1-yl}methyl)piperidin-1-yl]-1,2-oxazol-5-yl}-3-methylbutanoyl]-4-hydroxy-N-[(1S)-1-[4-(4-methyl-1,3-thiazol-5-yl)phenyl]ethyl]pyrrolidine-2-carboxamide] | 20 to 60% | 1000 to 3000 nM
12 | C#Cc1c(F)ccc2cc(O)cc(-c3ncc4c(N5CC6CCC(C5)N6)nc(OCCN5CCC(CC6CCN(c7cc([C@H](C(=O)N8C[C@H](O)C[C@H]8C(=O)N[C@@H](C)c8ccc(-c9ccnn9C)cc8)C(C)C)on7)CC6)CC5)nc4c3F)c12 [Compound 168, (2S,4R)-1-[(2R)-2-(3-{4-[(1-{2-[(4-{3,8-diazabicyclo[3.2.1]octan-3-yl}-7-(8-ethynyl-7-fluoro-3-hydroxynaphthalen-1-yl)-8-fluoropyrido[4,3-d]pyrimidin-2-yl)oxy]ethyl}piperidin-4-yl)methyl]piperidin-1-yl}-1,2-oxazol-5-yl)-3-methylbutanoyl]-4-hydroxy-N-[(1S)-1-[4-(1-methyl-1H-pyrazol-5-yl)phenyl]ethyl]pyrrolidine-2-carboxamide] | 80 to 100% | < 600 nM
13 | C#Cc1c(F)ccc2cc(O)cc(-c3ncc4c(N5CC6CCC(C5)N6)nc(OCCN5CCC(CC6CCN(c7cc([C@@H](C(=O)N8C[C@H](O)C[C@H]8C(=O)N[C@@H](C)c8ccc(-c9ccnn9C)cc8)C(C)C)on7)CC6)CC5)nc4c3F)c12 [Compound 169, (2S,4R)-1-[(2S)-2-(3-{4-[(1-{2-[(4-{3,8-diazabicyclo[3.2.1]octan-3-yl}-7-(8-ethynyl-7-fluoro-3-hydroxynaphthalen-1-yl)-8-fluoropyrido[4,3-d]pyrimidin-2-yl)oxy]ethyl}piperidin-4-yl)methyl]piperidin-1-yl}-1,2-oxazol-5-yl)-3-methylbutanoyl]-4-hydroxy-N-[(1S)-1-[4-(1-methyl-1H-pyrazol-5-yl)phenyl]ethyl]pyrrolidine-2-carboxamide] | 20 to 60% | 600 to 1000 nM
